Reference: patent US8791132B2, “Compounds and methods for treatment of hypertension” (Medivation Technologies, Inc., priority 2011, dated 2014)
Values joined by “and” are separate entries in the source; they are usually repeats but may differ in a detail not shown here. Equal entries are not always repeated. Where two headings read alike, the source gives them in different places.

Tests used:
[1] = target: T1, human recombinant adrenergic α2A receptor (Homo sapiens, UniProt P08913); experiment: Radioligand binding, adrenergic α2A ([3H]MK-912); details: for Percentage inhibition of ligand binding, Adrenergic α2A / Percentage inhibition of ligand binding, Adrenergic α2A (0.1 μM): 0.1 µM
T1 construct: expressed in transfected cells; host or cells: insect Sf9 cells
T1 sequence (P08913 1-465): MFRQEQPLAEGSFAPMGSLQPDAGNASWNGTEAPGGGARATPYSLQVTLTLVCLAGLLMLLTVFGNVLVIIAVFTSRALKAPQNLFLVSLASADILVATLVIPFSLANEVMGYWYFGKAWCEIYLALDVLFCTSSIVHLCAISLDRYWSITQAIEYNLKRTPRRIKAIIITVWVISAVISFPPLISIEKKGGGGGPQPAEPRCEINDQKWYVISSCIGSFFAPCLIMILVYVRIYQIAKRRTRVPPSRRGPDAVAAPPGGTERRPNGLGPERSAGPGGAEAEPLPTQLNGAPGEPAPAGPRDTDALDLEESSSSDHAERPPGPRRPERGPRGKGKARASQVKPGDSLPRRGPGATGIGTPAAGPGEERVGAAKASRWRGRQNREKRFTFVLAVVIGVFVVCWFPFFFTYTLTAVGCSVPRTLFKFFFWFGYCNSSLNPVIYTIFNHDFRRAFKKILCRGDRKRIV
In short: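 Sf9-expressed receptor was incubated with compound for 60 min at 25 °C in modified Tris-HCl buffer, pH 7.4. Nonspecific binding was taken as that remaining with 10 μM WB-4101.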

[2] = target: T2, human recombinant adrenergic α2B receptor (Homo sapiens, UniProt P18089); experiment: Radioligand binding, adrenergic α2B ([3H]Rauwolscine); details: for Percentage inhibition of ligand binding, Adrenergic α2B / Percentage inhibition of ligand binding, Adrenergic α2B (0.03 μM): 0.03 µM
T2 construct: expressed in transfected cells; host or cells: CHO-K1
T2 sequence (P18089 1-450): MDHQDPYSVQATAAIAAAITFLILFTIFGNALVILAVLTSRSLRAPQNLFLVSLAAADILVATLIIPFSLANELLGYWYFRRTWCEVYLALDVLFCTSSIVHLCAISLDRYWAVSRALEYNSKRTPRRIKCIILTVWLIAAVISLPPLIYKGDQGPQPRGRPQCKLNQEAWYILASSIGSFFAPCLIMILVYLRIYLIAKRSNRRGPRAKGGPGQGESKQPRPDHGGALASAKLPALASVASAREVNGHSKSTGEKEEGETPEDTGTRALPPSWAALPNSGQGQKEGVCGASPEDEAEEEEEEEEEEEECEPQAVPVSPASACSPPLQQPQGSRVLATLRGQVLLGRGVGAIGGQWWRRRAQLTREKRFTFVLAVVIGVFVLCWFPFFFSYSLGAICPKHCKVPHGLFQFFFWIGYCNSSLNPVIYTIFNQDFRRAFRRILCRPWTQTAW
In short: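 Receptor expressed in CHO-K1 cells, assayed in 50 mM Tris-HCl pH 7.4 with 12.5 mM MgCl2, 1 mM EDTA and 0.2% BSA. Compounds were incubated with 2.5 nM [3H]Rauwolscine for 60 min at 25° C; 10 μM Prazosin defined non-specific binding. Filter counting gave percent inhibition of specific binding.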

[3] = target: T3, rat adrenergic α1B receptor (Rattus norvegicus, UniProt P15823); experiment: Radioligand binding, adrenergic α1B ([3H]Prazosin)
T3 construct: rat adrenergic α1B receptor obtained from Wistar Rat liver; from tissue; host or cells: Wistar rat liver
T3 sequence (P15823 1-515): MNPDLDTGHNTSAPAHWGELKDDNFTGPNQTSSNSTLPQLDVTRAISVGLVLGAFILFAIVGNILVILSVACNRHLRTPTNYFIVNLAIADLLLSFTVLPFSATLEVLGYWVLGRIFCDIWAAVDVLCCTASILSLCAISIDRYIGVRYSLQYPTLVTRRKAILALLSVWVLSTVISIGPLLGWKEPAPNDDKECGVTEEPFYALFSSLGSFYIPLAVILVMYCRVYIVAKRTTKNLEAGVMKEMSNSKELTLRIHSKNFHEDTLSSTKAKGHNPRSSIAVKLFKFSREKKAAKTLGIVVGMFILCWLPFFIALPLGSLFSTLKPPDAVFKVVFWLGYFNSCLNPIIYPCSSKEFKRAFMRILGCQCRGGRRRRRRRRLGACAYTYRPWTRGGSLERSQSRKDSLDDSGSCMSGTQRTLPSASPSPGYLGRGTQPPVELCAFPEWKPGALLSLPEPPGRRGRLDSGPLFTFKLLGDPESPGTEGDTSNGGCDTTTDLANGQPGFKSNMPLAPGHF
In short: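 Incubation ran 60 min at 25 °C in Tris-HCl buffer (50 mM, pH 7.4, 0.5 mM EDTA) with Wistar rat liver α1B receptor. 10 μM phentolamine set non-specific binding.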

[4] = compound at 0.1 μM, [3H]MK-912, repeat assays, each datapoint shown
[5] = compound at 0.03 μM, [3H]Rauwolscine, repeat assays, each datapoint shown
[6] = compound at 0.1 μM, [3H]Prazosin, repeat assays, each datapoint shown, 0.1 µM
[7] = read-out: Percentage inhibition of ligand binding, Adrenergic α2A (0.1 μM), compound at 0.1 μM, [3H]MK-912, repeat datapoints each shown
[8] = read-out: Percentage inhibition of ligand binding, Adrenergic α2B (0.03 μM), compound at 0.03 μM, [3H]Rauwolscine, repeat datapoints each shown
[9] = read-out: Percentage inhibition of ligand binding, Adrenergic α1B (0.1 μM), compound at 0.1 μM, [3H]Prazosin, repeat datapoints each shown
[10] = compound at 0.1 μM, [3H]MK-912, repeat datapoints each shown
[11] = compound at 0.03 μM, [3H]Rauwolscine, repeat datapoints each shown
[12] = compound at 0.1 μM, [3H]Prazosin, repeat datapoints each shown, 0.1 µM
[13] = compound at 0.1 μM, [3H]MK-912, repeat assays, each datapoint shown, read-out: Percentage inhibition of ligand binding, Adrenergic α2A
[14] = compound at 0.1 μM, [3H]Prazosin, repeat assays, each datapoint shown, read-out: Percentage inhibition of ligand binding, Adrenergic α1B
[15] = 0.1 μM compound, read-out: Percentage inhibition of ligand binding, Adrenergic α2A
[16] = 0.03 μM compound, read-out: Percentage inhibition of ligand binding, Adrenergic α2B
[17] = 0.1 μM compound, read-out: Percentage inhibition of ligand binding, Adrenergic α1B

Cc1ccc2c(c1)c1c(n2CC(O)c2cccnc2)CN(C)CC1 (single isomer, unassigned) [43a, 2-(2,6-dimethyl-1,2,3,4-tetrahydro-β-carbolin-9-yl)-1-pyridin-3-yl-ethanol]
Percentage inhibition of ligand binding, Adrenergic α2A [1, 4]: 9% | Percentage inhibition of ligand binding, Adrenergic α2B [2, 5]: 51% | Percentage inhibition of ligand binding, Adrenergic α1B [3, 6]: 33%

C/C(=C\n1c2c(c3cc(C)ccc31)C1CCCN1CC2)c1ccc(F)cc1 (single isomer, unassigned) [194b, 7-(2-(4-fluorophenyl)prop-1-enyl)-10-methyl-2,3,5,6,7,11c-hexahydro-1H-indolizino[7,8-b]indole]
inhibition at 0.1 µM [1, 7]: 94% | inhibition at 0.03 µM [2, 8]: 103% | inhibition at 0.1 µM [3, 9]: 100%

Cc1ccc2c(c1)c1c(n2CC(O)c2ccncc2)CC2CCCCN2C1 (racemic) [75a]
Percentage inhibition of ligand binding, Adrenergic α2A [1, 4]: 11% | Percentage inhibition of ligand binding, Adrenergic α2B [2, 5]: 77% | Percentage inhibition of ligand binding, Adrenergic α1B [3, 6]: 61%

Cc1ccc2c(c1)c1c(n2CC(C)(OCC(=O)O)c2cccnc2)CCN(C)C1 (single isomer, unassigned) [V-14a, 2-((1-(2,8-dimethyl-3,4-dihydro-1H-pyrido[4,3-b]indol-5(2H)-yl)-2-(pyridin-3-yl)propan-2-yl)oxy)acetic acid]
Percentage inhibition of ligand binding, Adrenergic α2A (0.1 μM) [1, 10]: 18% | Percentage inhibition of ligand binding, Adrenergic α2B (0.03 μM) [2, 11]: 7% | Percentage inhibition of ligand binding, Adrenergic α1B (0.1 μM) [3, 12]: 0%

Cc1cnc2c(c1)c1c(n2CC(C)(O)c2cccnc2)CCN2CCCC12 (single isomer, unassigned) [26d]
Percentage inhibition of ligand binding, Adrenergic α2A [1, 4]: 0% | Percentage inhibition of ligand binding, Adrenergic α2B [2, 5]: 6% and 11% | Percentage inhibition of ligand binding, Adrenergic α1B [3, 6]: −2%

Cc1ccc2c(c1)c1c(n2CC(CC(O)C(C)(C)C)c2ccncc2)CCN(C)C1 (single isomer, unassigned) [II-227c, 6-(2,8-dimethyl-1,2,3,4-tetrahydro-pyrido[4,3-b]indol-5-yl)-2,2-dimethyl-5-pyridin-4-yl-hexan-3-ol]
Percentage inhibition of ligand binding, Adrenergic α2A (0.1 μM) [1, 10]: 24% | Percentage inhibition of ligand binding, Adrenergic α2B (0.03 μM) [2, 11]: 94% | Percentage inhibition of ligand binding, Adrenergic α1B (0.1 μM) [3, 12]: 20%

Cc1ccc2c(c1)c1c(n2CC(C)(O)c2cccnc2)CCNC1 (single isomer, unassigned) [24b]
Percentage inhibition of ligand binding, Adrenergic α2A [1, 4]: 15% | Percentage inhibition of ligand binding, Adrenergic α2B [2, 5]: 29% | Percentage inhibition of ligand binding, Adrenergic α1B ([3]; compound at 0.1 μM, [3H]Prazosin, repeat assays, each datapoint shown): 8%

Cc1ccc2c(c1)c1c(n2CC(O)c2cccnc2)CCNC1 (single isomer, unassigned) [9b, 2-(8-methyl-1,2,3,4-tetrahydro-pyrido[4,3-b]indol-5-yl)-1-pyridin-3-yl-ethanol]
Percentage inhibition of ligand binding, Adrenergic α2A [1, 4]: 10% | Percentage inhibition of ligand binding, Adrenergic α2B [2, 5]: 50% | Percentage inhibition of ligand binding, Adrenergic α1B [3, 6]: 10%

Cc1ccc2c(c1)c1c(n2CC(CC(N)=O)c2ccncc2)CCN(C)C1 (stereo not drawn) [II-229, 4-(2,8-dimethyl-1,2,3,4-tetrahydro-pyrido[4,3-b]indol-5-yl)-3-pyridin-4-yl-butyramide]
inhibition at 0.1 µM [1, 7]: 6% | inhibition at 0.03 µM [2, 8]: 12% | inhibition at 0.1 µM [3, 9]: 3%

Cc1cnc2c(c1)c1c(n2CCc2cnc(C)nc2)CCN2CCCC12 (single isomer, unassigned) [IV-93b]
Percentage inhibition of ligand binding, Adrenergic α2A (0.1 μM) [1, 10]: −1% | Percentage inhibition of ligand binding, Adrenergic α2B (0.03 μM) [2, 11]: 44% | Percentage inhibition of ligand binding, Adrenergic α1B (0.1 μM) [3, 12]: 65%

OC(Cn1c2c(c3cc(Cl)ccc31)CNCC2)c1ccncc1 (single isomer, unassigned) [10a, 2-(8-chloro-1,2,3,4-tetrahydro-pyrido[4,3-b]indol-5-yl)-1-pyridin-4-yl-ethanol]
inhibition at 0.1 µM [1, 13]: 8% | Percentage inhibition of ligand binding, Adrenergic α2B [2, 5]: 34% | inhibition at 0.1 µM [3, 14]: 30%

Cc1ccc2c(c1)c1c(n2CC(O)c2ccc(O)nc2)CCN(C)C1 (stereo not drawn) [II-92, 5-(2-(1,2,3,4-tetrahydro-2,8-dimethylpyrido[4,3-b]indol-5-yl)-1-hydroxyethyl)pyridin-2(1H)-one]
inhibition at 0.1 µM [1, 15]: 0% | inhibition at 0.03 µM [2, 16]: 25% | inhibition at 0.1 µM [3, 17]: 13%

CC(=O)c1ccc2c(c1)c1c(n2CC(O)c2ccncc2)CCN(C)C1 (single isomer, unassigned) [49b, 1-(2,3,4,5-tetrahydro-5-(2-hydroxy-2-(pyridin-4-yl)ethyl)-2-methyl-1H-pyrido[4,3-b]indol-8-yl)ethanone]
Percentage inhibition of ligand binding, Adrenergic α2A [1, 4]: 6% | Percentage inhibition of ligand binding, Adrenergic α2B [2, 5]: 19% | Percentage inhibition of ligand binding, Adrenergic α1B [3, 6]: 5%

Cc1cccc2c3c(n(CC(O)c4ccncc4)c12)CCN(C)C3 (stereo not drawn) [compound 82, 2-(2,6-dimethyl-1,2,3,4-tetrahydro-pyrido[4,3-b]indol-5-yl)-1-pyridin-4-yl-ethanol]
inhibition at 0.1 µM [1, 13]: 5% | inhibition at 0.03 µM ([2]; compound at 0.03 μM, [3H]Rauwolscine, repeat assays, each datapoint shown, read-out: Percentage inhibition of ligand binding, Adrenergic α2B): 79% | inhibition at 0.1 µM [3, 14]: 16%

CCCCCCC(=O)OC(Cn1c2c(c3cc(C)ccc31)CN(C)CC2)c1ccncc1 (stereo not drawn) [compound 338, heptanoic acid 2-(2,8-dimethyl-1,2,3,4-tetrahydro-pyrido[4,3-b]indol-5-yl)-1-pyridin-4-yl-ethyl ester]
inhibition at 0.1 µM [1, 15]: 60% | inhibition at 0.03 µM [2, 16]: 102% | inhibition at 0.1 µM [3, 17]: 16%

Cc1ccc2c(c1)c1c(n2CC(C)(F)c2cccnc2)CCN(C)C1 (stereo not drawn) [II-212, 5-(2-Fluoro-2-pyridin-3-yl-propyl)-2,8-dimethyl-2,3,4,5-tetrahydro-1H-pyrido[4,3-b]indole]
inhibition at 0.1 µM [1, 7]: 19% | inhibition at 0.03 µM [2, 8]: 73% | inhibition at 0.1 µM [3, 9]: 29%
